Laboratory results taken from patent US7390833B2, “Method for treating ADAMTS-5-associated disease” (Wyeth, priority 2003, dated 2008).

Experiments:
[1] = biological target: T1, ADAMTS-5 (Agg-2), purified recombinant human Aggrecanase-2 (Ag2t-Phe628-Strep) (Homo sapiens, UniProt Q9UNA0); assay: Inhibition of aggrecanase activity of ADAMTS-5 (Agg-2), continuous fluorescent quenched-peptide assay (WAKB-5 substrate); type: biochemical; settings: concentration that inhibits 50% of the aggrecanase activity of ADAMTS-5 (Agg-2); substrate 25 μM, pH 7.4, room temperature
T1 construct: the form used is denoted as Ag2t-Phe628-Strep (MW=41,737)
T1 sequence (Q9UNA0 262-628): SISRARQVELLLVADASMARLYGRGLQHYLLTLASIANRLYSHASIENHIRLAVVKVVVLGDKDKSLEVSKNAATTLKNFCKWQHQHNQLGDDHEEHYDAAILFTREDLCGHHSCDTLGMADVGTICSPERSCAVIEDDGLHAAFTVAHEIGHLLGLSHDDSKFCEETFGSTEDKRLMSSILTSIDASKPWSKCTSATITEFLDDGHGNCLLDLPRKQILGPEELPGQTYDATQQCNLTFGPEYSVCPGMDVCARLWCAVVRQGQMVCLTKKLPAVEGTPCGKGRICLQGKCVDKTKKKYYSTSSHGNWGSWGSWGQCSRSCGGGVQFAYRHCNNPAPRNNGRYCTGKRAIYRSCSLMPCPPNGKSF
Method: The biaryl sulfonamide compounds of the present invention were tested for their ability to inhibit the aggrecanase activity of ADAMTS-4 (Agg-1) and ADAMTS-5 (Agg-2).
A continuous assay was used in which the substrate upon which Agg-1 and […] acts is a synthetic peptide containing a fluorescent group that is quenched by energy transfer. Cleavage of the peptide by the aggrecanase enzyme results in a large increase in fluorescence. The initial rates of the reaction are compared to the initial rates of reactions containing the biaryl sulfonamide compounds in order to assess the inhibitor potency of the compounds.
The source of enzyme in the assay is purified recombinant human Aggrecanase-2. More specifically, the form used is denoted as Ag2t-Phe628-Strep (MW=41,737). This form is truncated relative to the full-length enzyme and contains an affinity tag. Aliquots of this enzyme were stored at −80° C. in 25 mM Tris (pH 8.0), 100 mM NaCl, 5 mM CaCl2, 10 μM ZnCl2, 10% glycerol.
The substrate in the assay is a synthetic peptide that is designed after a portion of brevican, one of the naturally occurring substrates of Aggrecanase-2. […] WAKB-5 (mass=1740) was custom synthesized by AnaSpec, Inc. (San Jose, Calif.) and was >95% pure based on HPLC analysis. […] Stock solutions of the substrate were prepared with MilliQ water and aliquots were stored at −80° C. The concentration of this substrate stock was spectrophotometrically determined using the extinction coefficient at 354 nm of 18,172 M^−1 cm^−1.
The assay buffer (pH 7.4) consisted of 50 mM Hepes, 100 mM NaCl, 5 mM CaCl2, 0.1% CHAPS, 5% glycerol. Each well of black polystyrene 96-well or 384-well plates contained a reaction consisting of assay buffer, purified Agg-2 (diluted with assay buffer), and varied concentrations of inhibitor (prepared by serial dilution in DMSO in 96-well polypropylene plates). The plates were then incubated at room temperature for 10 minutes. The enzymatic reactions were initiated by adding substrate to a final concentration of 25 μM and were mixed by pipetting up and down. The initial rates of the cleavage reactions were determined at room temperature with a fluorescence plate reader immediately after substrate addition.
Analysis of the results was conducted by generating a plot of time vs. RFU for each sample. This was used as the “progress curve” of the reaction. The slope for the portion of the progress curve that is most linear was then determined. This slope (RFU/min) was used as the initial rate of the reaction. Plots of the inhibitor concentration vs. the initial cleavage rate were then fit to the following equation: y=Vmax*(1−(x^n/(K^n+x^n))), whereby x=inhibitor concentration, y=initial rate, Vmax=initial rate in the absence of inhibitor, n=slope factor, and K=IC50 for the inhibition curve.

ADAMTS-4 (Agg-1) = biological target: T2, ADAMTS-4 (Agg-1) (Homo sapiens, UniProt O75173); assay: Inhibition of aggrecanase activity of ADAMTS-4 (Agg-1), continuous fluorescent quenched-peptide assay; type: biochemical; settings: concentration that inhibits 50% of the aggrecanase activity of ADAMTS-4 (Agg-1);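 also: purified enzyme preincubated 10 min with inhibitor at room temperature, then initial substrate cleavage rate (RFU/min) read by fluorescence plate reader versus the uninhibited rate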
T2 sequence (O75173 213-837): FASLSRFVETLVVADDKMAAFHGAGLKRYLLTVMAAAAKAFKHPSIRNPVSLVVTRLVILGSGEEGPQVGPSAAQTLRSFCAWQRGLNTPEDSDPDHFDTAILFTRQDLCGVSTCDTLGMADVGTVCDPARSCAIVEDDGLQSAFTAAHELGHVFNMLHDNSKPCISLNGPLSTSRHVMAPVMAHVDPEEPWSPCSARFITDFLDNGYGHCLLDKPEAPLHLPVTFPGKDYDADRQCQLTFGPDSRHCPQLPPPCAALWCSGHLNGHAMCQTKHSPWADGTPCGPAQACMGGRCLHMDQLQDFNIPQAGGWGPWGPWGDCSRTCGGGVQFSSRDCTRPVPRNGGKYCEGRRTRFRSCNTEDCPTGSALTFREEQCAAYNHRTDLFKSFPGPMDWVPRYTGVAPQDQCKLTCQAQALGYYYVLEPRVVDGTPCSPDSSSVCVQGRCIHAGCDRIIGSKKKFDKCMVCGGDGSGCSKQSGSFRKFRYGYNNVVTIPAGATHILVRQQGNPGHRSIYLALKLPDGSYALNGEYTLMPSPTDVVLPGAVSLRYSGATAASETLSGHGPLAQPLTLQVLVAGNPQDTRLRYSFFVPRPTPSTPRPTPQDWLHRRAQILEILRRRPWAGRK
Method: A continuous assay was used in which the substrate upon which Agg-1 and Agg-1 acts is a synthetic peptide containing a fluorescent group that is quenched by energy transfer. […] The initial rates of the reaction are compared to the initial rates of reactions containing the biaryl sulfonamide compounds in order to assess the inhibitor potency of the compounds.
The assay buffer (pH 7.4) consisted of 50 mM Hepes, 100 mM NaCl, 5 mM CaCl2, 0.1% CHAPS, 5% glycerol. Each well of black polystyrene 96-well or 384-well plates contained a reaction consisting of assay buffer, purified Agg-2 (diluted with assay buffer), and varied concentrations of inhibitor (prepared by serial dilution in DMSO in 96-well polypropylene plates). The plates were then incubated at room temperature for 10 minutes. […] The initial rates of the cleavage reactions were determined at room temperature with a fluorescence plate reader immediately after substrate addition.

Structure (SMILES)	IC50 [1] [nM]	IC50 (ADAMTS-4 (Agg-1)) [nM]
CC(C)[C@@H](NS(=O)(=O)c1ccc(-c2ccc(COc3ccc(Oc4ccccc4)cc3)cc2)cc1F)C(=O)O	> 200000	100
COc1ccc(C(=O)c2ccc(OCc3ccc(-c4ccc(S(=O)(=O)N[C@@H](C(=O)O)C(C)C)cc4)cc3)cc2)cc1	> 100000	300
CC(C)[C@@H](NS(=O)(=O)c1ccc(-c2ccc(COc3ccc(C(=O)N4CCCC4)cc3)cc2)cc1)C(=O)O	67000	1900
CC(C)[C@@H](NS(=O)(=O)c1ccc(-c2ccc(COc3cccc(O)c3)cc2)cc1)C(=O)O	13000	1100
CC(=O)c1cccc(OCc2ccc(-c3ccc(S(=O)(=O)N[C@@H](C(=O)O)C(C)C)cc3)cc2)c1	12600	1000
CC(C)[C@@H](NS(=O)(=O)c1ccc(-c2ccc(COc3cccc4[nH]ccc34)cc2)cc1)C(=O)O	12000	1900
CC(C)[C@@H](NS(=O)(=O)c1ccc(-c2ccc(COc3ccc(F)cc3)cc2)cc1)C(=O)O	11300	1700
Cc1cc(-c2ccc(COc3ccc4c(c3)CCCC4=O)cc2)ccc1S(=O)(=O)N[C@@H](C(=O)O)C(C)C	11200	900
COc1ccc(OCc2ccc(-c3ccc(S(=O)(=O)N[C@@H](C(=O)O)C(C)C)cc3)cc2)cc1	10700	1600
CC(C)[C@@H](NS(=O)(=O)c1ccc(-c2ccc(COc3ccc(Oc4ccccn4)cc3)cc2)cc1)C(=O)O	10600	900
CC(C)[C@@H](NS(=O)(=O)c1ccc(-c2ccc(COc3cccc(F)c3)cc2)cc1)C(=O)O	8200	
CC(C)[C@@H](NS(=O)(=O)c1ccc(-c2ccc(COc3ccc4c(c3)CCCC4=O)cc2)cc1)C(=O)O	7500	200
CC(=O)c1ccc(OCc2ccc(-c3ccc(S(=O)(=O)N[C@@H](C(=O)O)C(C)C)cc3)cc2)cc1	7000	400
CC(C)[C@@H](NS(=O)(=O)c1ccc(-c2ccc(COc3ccc4c(c3)CCCC4=O)cc2)cc1F)C(=O)O	6600	200
CC(C)[C@@H](NS(=O)(=O)c1ccc(-c2ccc(COc3cccc(O)n3)cc2)cc1)C(=O)O	6500	400
COc1ccc(COc2ccc(-c3ccc(S(=O)(=O)N[C@@H](C(=O)O)C(C)C)cc3)cc2)cc1	6300	1900
COc1cccc(OCc2ccc(-c3ccc(S(=O)(=O)N[C@@H](C(=O)O)C(C)C)cc3)cc2)c1	5800	1800
CC(C)[C@@H](NS(=O)(=O)c1ccc(-c2ccc(COc3ccc(NC(=O)OC(C)(C)C)cc3)cc2)cc1)C(=O)O	5400	600
CC(C)[C@@H](NS(=O)(=O)c1ccc(-c2ccccc2)cc1)C(=O)O	5000	2600

Structure (SMILES)	IC50 [1] [nM]	IC50 (ADAMTS-4 (Agg-1)) [nM]
Cc1cccc(Oc2ccc(OCc3ccc(-c4ccc(S(=O)(=O)N[C@@H](C(=O)O)C(C)C)cc4)cc3)cc2)n1	4000	700
Cc1cccc(Oc2ccc(OCc3ccc(-c4ccc(S(=O)(=O)N[C@@H](C(=O)O)C(C)C)c(F)c4)cc3)cc2)n1	3500	900
Cc1c(COc2ccc(-c3ccc(S(=O)(=O)N[C@@H](C(=O)O)C(C)C)cc3)cc2)oc2ccccc12	3400	1100
CC(C)[C@@H](NS(=O)(=O)c1ccc(-c2ccc(COc3cccc(C(=O)c4ccccc4)c3)cc2)cc1)C(=O)O	3400	200
Cc1cccc(Oc2ccc(OCc3ccc(-c4ccc(S(=O)(=O)N[C@@H](C(=O)O)C(C)C)c(Cl)c4)cc3)cc2)n1	3200	900
COc1cc(COc2ccc(-c3ccc(S(=O)(=O)N[C@@H](C(=O)O)C(C)C)cc3)cc2)cc(OC)c1	3200	1900
CC(C)[C@@H](NS(=O)(=O)c1ccc(-c2ccc(OCc3ccc4c(c3)OCCO4)cc2)cc1)C(=O)O	3000	1400
O=C(O)CC[C@H](NC(=O)c1ccc(-c2ccccc2)cc1)C(=O)NCc1ccc(F)cc1	2800	200
CC(C)[C@@H](NS(=O)(=O)c1ccc(-c2ccc(COc3ccc(C(=O)C4CCCCC4)cc3)cc2)cc1)C(=O)O	2600	100
CC(C)[C@@H](NS(=O)(=O)c1ccc(-c2ccc(COc3cccc(C(=O)C4CCCCC4)c3)cc2)cc1)C(=O)O	2400	400
CC(C)[C@@H](NS(=O)(=O)c1ccc(-c2ccc(COc3ccc4c(c3)CCC4)cc2)cc1)C(=O)O	2400	400
CC(C)[C@@H](NS(=O)(=O)c1ccc(-c2ccc(COc3ccc(C(=O)c4ccccc4)cc3)cc2)cc1)C(=O)O	2000	200
CC(C)[C@@H](NS(=O)(=O)c1ccc(-c2ccc(COc3cc(C(F)(F)F)nc4c(C(F)(F)F)cccc34)cc2)cc1)C(=O)O	1800	200
CC(C)[C@@H](NS(=O)(=O)c1ccc(-c2ccc(COc3ccc(C4CCCC4)cc3)cc2)cc1)C(=O)O	800	400
CC(C)[C@@H](NS(=O)(=O)c1ccc(-c2ccc(COc3ccc(Oc4ccccc4)cc3)cc2)cc1)C(=O)O	400	400
CC(C)C(=O)c1ccc(OCc2ccc(-c3ccc(S(=O)(=O)N[C@@H](C(=O)O)C(C)C)cc3)cc2)cc1 [drawing 151]	8400	100
CC(C)C(=O)c1ccc(OCc2ccc(-c3ccc(S(=O)(=O)N[C@@H](C(=O)O)C(C)C)cc3)cc2)cc1 [drawing 152]	8400	100
CC(C)[C@@H](NS(=O)(=O)c1ccc(-c2ccc(COc3ccc(C(=O)c4ccc(F)cc4)cc3)cc2)cc1)C(=O)O [drawing 171]	2500	100
CC(C)[C@@H](NS(=O)(=O)c1ccc(-c2ccc(COc3ccc(C(=O)c4ccc(F)cc4)cc3)cc2)cc1)C(=O)O [drawing 172]	2400	100
